Experimental data taken from US20230293409A1, “Compositions Comprising Antimicrobials and (Bio)-Alkanediols for Skin Protection” (Symrise AG, priority 2020, published 2023).
In brackets after ≈: the same amount, converted by molar mass. Where two headings read alike, the source gives them in different places. Blank lines part the entries; values can stand above or below the compound they belong to.

Columns and labels:
human sebaceous glands = test: Sebum control: micro-dissected cultured sebaceous glands, lipids normalized upon proteins; type: cell-based; conditions: for sebum reduction: human sebaceous glands cultured six days, compared to untreated control, FIG. 2, single donor
Protocol: Additional tests were performed with human sebaceous glands in order to verify the modulatory activity of different 1,2-alkanediols on sebum secretion. Several microbial species on the skin are lipid dependent and feed on the human sebum (e.g., Corynebacterium, Propionibacterium). Accordingly, sebum reduction can indirectly support the reduction of microorganisms on the skin and in this way also indirectly support e.g., dandruff or acne reduction. For these experiments sebaceous glands had been micro-dissected and cultured with medium. The medium without any supplement served as untreated control. The medium with 5 μM Capsaicin served as positive control. Additionally, the culture medium was supplemented with different concentrations of alkanediols. After six days the sebaceous glands were collected and lipids and proteins quantified. The total lipid amount being representative of sebum production was obtained by normalizing the quantified lipids upon the quantified proteins (i.e., mg of lipids/mg of proteins).

Staphylococcus aureus = test: Minimum Inhibitory Concentration (MIC) test and Kull synergy index; type: cell-based
Escherichia coli = test: Minimum Inhibitory Concentration (MIC) test; type: cell-based; conditions: single substance (Tables 1, 2)
Protocol: (§1) The Minimum Inhibitory Concentration (MIC) test is a test on growth inhibition. The estimation of MICs is executed in 96 well plates. Through the comparison of bacterial growth with positive and negative controls via optical density (OD), different concentrations of given test substances are evaluated. Bacteria were cultivated under adjusted conditions based on information of the German Collection of Microorganisms and Cell Cultures (DSMZ) and stored in 50% glycerol prior to use. Afterwards, the following method was applied: Growth medium (according to microorganism) was added to each well of the microplate. Then, the test-substances were added in different concentrations, positive controls (water controls only with medium) and negative controls (benchmarks according to organism). Finally, the microorganisms were added in a concentration of 10^6 CFU/ml (CFU=colony forming units). The incubation of the microplates was carried out at appropriate conditions. According to the resulting growth, substance concentrations are labelled either as inhibiting or not and MIC is defined as the lowest concentration where a complete growth inhibition is visible. Experiments at concentration limits (highest concentration labelled as growth and lowest concentration labelled as inhibiting) are performed at least twice.

Propionibacterium acnes = test: Minimum Inhibitory Concentration (MIC) test; type: cell-based; conditions: Cutibacterium acnes, single substance (Tables 1, 2)
Protocol: as §1

Corynebacterium jeikeium = test: Minimum Inhibitory Concentration (MIC) test; type: cell-based; conditions: single substance (Tables 1, 2)
Protocol: as §1

Staphylococcus hominis = test: Minimum Inhibitory Concentration (MIC) test; type: cell-based; conditions: single substance (Tables 1, 2)
Protocol: as §1

Candida albicans = test: Minimum Inhibitory Concentration (MIC) test; type: cell-based; conditions: single substance (Tables 1, 2)
Protocol: as §1

[1] = Maximum solubility of alkanediols in water; type: physicochemical; conditions: ambient temperature after 24 h storage at 5° C.; visual observation
[2] = Table 3, Component B alone, read-out: MIC Component B in ppm

Compound: CCCCCCCCCC(O)CO (stereo not shown) [1,2-Undecanediol, 1,2-undecanediol]
sebum reduction (human sebaceous glands): 45%
MIC (Staphylococcus aureus; single substance (Tables 1, 2), read-out: Minimum Inhibitory Concentration (MIC)): 125 µg/mL
MIC (Escherichia coli): 250 µg/mL (≈ 1330 µM)
MIC (Propionibacterium acnes): 250 µg/mL (≈ 1330 µM)
MIC (Corynebacterium jeikeium): 250 µg/mL (≈ 1330 µM)
MIC (Staphylococcus hominis): 125 µg/mL (≈ 664 µM)
MIC (Candida albicans): 64 µg/mL (≈ 340 µM)

Compound: CCCCCCC(O)C(C)O (stereo not shown) [2,3-Nonanediol, 2,3-nonanediol]
sebum reduction (human sebaceous glands): 40%
Maximum solubility in water (% by weight) [1]: 0.3 % by weight

Compound: CCCCCC(O)C(C)O (stereo not shown) [2,3-Octanediol, 2,3-octanediol]
Maximum solubility in water (% by weight) [1]: 1.5 % by weight

Compound: CCCCC(CC)COCC(O)CO (stereo not shown) [Ethylhexylglycerin]
MIC Component B in ppm (Staphylococcus aureus; Table 3, Component B alone): 2000 ppm

Compound: CCCCCCCC(O)CO (stereo not shown) [1,2-Nonanediol, 1,2-nonanediol]
concentration dependency of sebum reduction (human sebaceous glands; different concentrations, FIG. 3, single donor different from FIG. 2): experimentally confirmed
MIC Component A in ppm (Staphylococcus aureus; Table 4, Component A alone): 1000 ppm
Maximum solubility in water (% by weight) [1]: 0.1 % by weight

Compound: OCc1ccccc1 [Benzyl Alcohol]
MIC (Staphylococcus aureus; [2]): 5000 µg/mL
MIC Component B in ppm (Staphylococcus aureus; Table 4, Component B alone): 5000 ppm

Compound: CCCCCCCC(=O)OCC(O)CO (stereo not shown) [Glyceryl caprylate]
MIC (Staphylococcus aureus; [2]): 2500 µg/mL

Compound: CCCCC(O)C(C)O (stereo not shown) [2,3-Heptanediol, 2,3-heptanediol]
Maximum solubility in water (% by weight) [1]: 3.6 % by weight

Further lines, with some results ahead:

MIC (Staphylococcus aureus; [2]): 250 µg/mL
Compound: CC(C)(C)C(=O)C(Oc1ccc(Cl)cc1)n1ccnc1 (stereo not shown) [Climbazole]

MIC (Staphylococcus aureus; [2]): 1000 µg/mL
MIC Component B in ppm (Staphylococcus aureus; Table 4, Component B alone): 1000 ppm
Compound: CCCCCCCC(=O)NO [Caprylhydroxamic acid]

Maximum solubility in water (% by weight) [1]: 2.5 % by weight
Compound: CCCCCC(O)CO (stereo not shown) [1,2-Heptanediol, 1,2-heptanediol]
sebum reduction (human sebaceous glands): 20%

Maximum solubility in water (% by weight) [1]: 50 % by weight
Compound: CCCCC(O)CO (stereo not shown) [1,2-Hexandiol, 1,2-hexanediol]

Maximum solubility in water (% by weight) [1]: 0.5 % by weight
Compound: CCCCCCC(O)CO (stereo not shown) [1,2-Octandiol, 1,2-octanediol]
